Source: PubChem BioAssay AID1963853 (Molecular Pharmacology Branch, DTP, NCI, 2024)
Where “and” joins values, the source holds several entries; their conditions need not be identical. Equal values may be shown once.

System: 266295-075-R-J1-PDC spheroid viability
Experiment: Anticancer human tumor 266295-075-R-J1-PDC patient-derived head and neck squamous carcinoma cell line growth inhibition [POLQ]
Conditions: spheroids with HUVEC and MSC; for viability, T/C: stronger effect = lower value
Description: Multicellular complex tumor spheroid response to Polymerase (POL) inhibitors (novobiocin, ART-558, RP6685) in combination with a variety of drugs and investigational agents in selected tumor cell lines
The POL inhibitors (novobiocin, ART-558, and RP6685) were evaluated both individually and in combination with standard of care and investigational anticancer small molecules within a complex spheroid model of solid tumors. . Complex spheroids include a stromal component modeled by human endothelial cells (HUVEC) and fibroblasts modeled by human mesenchymal stem cells (MSCs). The concentration ranges selected for each drug and investigational agent were based upon clinically achievable concentrations if the clinical Cmax of the agent was known.
Compounds. The drugs and investigational agents: novobiocin (NSC847541), ART-558 (NSC835418), RP-6685 (NSC848927), peposertib (NSC802822), ceralasertib (NSC780249), elimusertib (NSC800525), camonsertib (NSC841442), AZD-1390 (NSC803789), olaparib (NSC753686), talazoparib (NSC767125), rucaparib (NSC756644), sotorasib (NSC818433), MRTX-1133 (NSC836407), SN-38 (NSC673596), topotecan (NSC609699), epotoside (NSC141540), doxorubicin (NSC123127), gemcitabine (NSC613327), 5-fluorouracil (NSC19893), paclitaxel (NSC125973), vemurafenib (NSC761431), MSA-2 (NSC828583), SN-011 (NSC837082), adavosertib (NSC754352), prexasertib (NSC758257), carboplatin (NSC241240) and oxaliplatin (NSC266046), were obtained from the National Cancer Institute (NCI) Developmental Therapeutics Program Chemical Repository (21). The FDA-approved anticancer drug set is available from the Developmental Therapeutics Program at https://dtp.cancer.gov/organization/dscb/obtaining/. […] The stock solutions were prepared in dimethyl sulfoxide (DMSO, Sigma-Aldrich, St. Louis, MO, cat. D2650), except for the platinum compounds which were prepared in saline (Quality Biological, Gaithersburg, MD, cat. 114-055-101), at 800-fold the tested concentration and stored at -70 degrees C prior to their use. All drugs and investigational agents were tested over a range starting from a high concentration at or near the clinical Cmax and decreasing in half-log increments. If the clinical Cmax for an agent had not been determined, the highest concentration tested was 10 microM, except for SN-38, which was tested at a high concentration of 1 microM.
Cell Culture. All cells were maintained in an incubator at 37 degrees C and 5% CO2 with 95% humidity. The PDC lines were cultured according to standard operating procedures established by the NCI PDMR (https://pdmr.cancer.gov). Table 3 of the manuscript, lists the cell lines along with the number of the three cell types plated to form the mct-spheroids and media for tumor cell growth. After thawing, all PDC lines, except 997537-175-T-J1-PDC and 415267-285-R-J2-PDC, were cultured in Matrigel-coated flasks prepared with a working solution of 1X Ham's F-12 nutrient mix, without supplementation (Thermo Fisher Scientific, cat. 11765054), 100 U/mL penicillin-streptomycin (Thermo Fisher Scientific, cat. 15140122), and 2.5% Matrigel (Corning Inc., Corning, NY, cat. 354248) for the first three passages. The two PDC lines 997537-175-T-J1-PDC and 415267-285-R-J2-PDC were cultured on uncoated flasks. The 857933-349-R-J2-PDC line was cultured in 6C/Colon 1B media containing advanced DMEM/F-12 (Thermo Fisher Scientific, cat. 12634028), 10 mM HEPES (Thermo Fisher Scientific, cat. 15630080), 1X GlutaMAX supplement (Thermo Fisher Scientific, cat. 35050061), 0.1 mg/mL primocin (InvivoGen, San Diego, CA, cat. ant-pm-2), 10% defined fetal bovine serum, heat inactivated (HyClone Laboratories Inc., Logan, UT, cat. SH30070.03HI), 50% L-WRN conditioned media (ATCC, cat. CRL-3276), 1.25 mM N-Acetyl-L-cysteine (Sigma-Aldrich, cat. A9165), 10 mM nicotinamide (Sigma-Aldrich, cat. N0636), 1X B-27 supplement (Thermo Fisher Scientific, cat. 17504044), 1X N-2 supplement (Thermo Fisher Scientific, cat. […]

[1] = curve of first compound, second compound 0.0316 µM
[2] = curve of first compound, second compound 0.1 µM
[3] = curve of first compound, second compound 0.316 µM
[4] = curve of first compound, second compound 1 µM
[5] = curve of first compound, second compound 3.16 µM
[6] = curve of first compound, second compound 10 µM
[7] = second compound 0.0316 µM, first compound 0.0316 µM
[8] = second compound 0.0316 µM, first compound 0.1 µM
[9] = second compound 0.0316 µM, first compound 0.316 µM
[10] = second compound 0.0316 µM, first compound 1 µM
[11] = second compound 0.0316 µM, first compound 3.16 µM
[12] = second compound 0.0316 µM, first compound 10 µM
[13] = second compound 0.1 µM, first compound 0.0316 µM
[14] = second compound 0.1 µM, first compound 0.1 µM
[15] = second compound 0.1 µM, first compound 0.316 µM
[16] = second compound 0.1 µM, first compound 1 µM
[17] = second compound 0.1 µM, first compound 3.16 µM
[18] = second compound 0.1 µM, first compound 10 µM
[19] = second compound 0.316 µM, first compound 0.0316 µM
[20] = second compound 0.316 µM, first compound 0.1 µM
[21] = second compound 0.316 µM, first compound 0.316 µM
[22] = second compound 0.316 µM, first compound 1 µM
[23] = second compound 0.316 µM, first compound 3.16 µM
[24] = second compound 0.316 µM, first compound 10 µM
[25] = second compound 1 µM, first compound 0.0316 µM
[26] = second compound 1 µM, first compound 0.1 µM
[27] = second compound 1 µM, first compound 0.316 µM
[28] = second compound 1 µM, first compound 1 µM
[29] = second compound 1 µM, first compound 3.16 µM
[30] = second compound 1 µM, first compound 10 µM
[31] = second compound 3.16 µM, first compound 0.0316 µM
[32] = second compound 3.16 µM, first compound 0.1 µM
[33] = second compound 3.16 µM, first compound 0.316 µM
[34] = second compound 3.16 µM, first compound 1 µM
[35] = second compound 3.16 µM, first compound 3.16 µM
[36] = second compound 3.16 µM, first compound 10 µM
[37] = second compound 10 µM, first compound 0.0316 µM
[38] = second compound 10 µM, first compound 0.1 µM
[39] = second compound 10 µM, first compound 0.316 µM
[40] = second compound 10 µM, first compound 1 µM
[41] = second compound 10 µM, first compound 3.16 µM
[42] = second compound 10 µM, first compound 10 µM
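Further: spheroids exposed to compounds for seven days before readout.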

Work on COc1ccc([C@@H](O)c2cc(-c3ncnc4cc(N5CCOCC5)ccc34)c(F)cc2Cl)nn1 + Nc1ccc(C#CCN(C(=O)Cc2ncc(C(F)(F)F)cc2C(F)(F)F)c2ccc(F)cc2)nn1 yielded an IC50 [1] of 5.25 µM, an IC50 [2] of 2.47 µM and an IC50 [3] of 4.85 µM. For the same compound, the IC50 [4] was 2.71 µM, the IC50 [5] was 3.24 µM and the IC50 [6] was 2.49 µM. For the same compound, the viability, T/C [7] was 87.8%, the viability, T/C [8] was 91.7% and the viability, T/C [9] was 72.4%. The viability, T/C [10] was 89%, the viability, T/C [11] was 59.4% and the viability, T/C [12] was 38%. The viability, T/C [13] was 78.3%, the viability, T/C [14] was 89.7% and the viability, T/C [15] was 71.6%. For the same compound, the viability, T/C [16] was 73.9%, the viability, T/C [17] was 43.2% and the viability, T/C [18] was 40%. For the same compound, the viability, T/C [19] was 93%, the viability, T/C [20] was 94.9% and the viability, T/C [21] was 71.4%. For the same compound, the viability, T/C [22] was 75.4%, the viability, T/C [23] was 57.4% and the viability, T/C [24] was 37.7%. It also gave a viability, T/C [25] of 113%, a viability, T/C [26] of 120% and a viability, T/C [27] of 81.1%. The viability, T/C [28] was 71%, the viability, T/C [29] was 49.3% and the viability, T/C [30] was 29.6%. The viability, T/C [31] was 98.6%, the viability, T/C [32] was 109% and the viability, T/C [33] was 82.8%. It also gave a viability, T/C [34] of 65.9%, a viability, T/C [35] of 55% and a viability, T/C [36] of 38.2%. For the same compound, the viability, T/C [37] was 104%, the viability, T/C [38] was 94.2% and the viability, T/C [39] was 87.9%. The viability, T/C [40] was 61.2%, the viability, T/C [41] was 46.8% and the viability, T/C [42] was 42.6%.
Work on C#Cc1c(F)ccc2cc(O)cc(-c3ncc4c(N5CC6CCC(C5)N6)nc(OCC56CCCN5CC(F)C6)nc4c3F)c12 (stereo unspecified) + COC1C(OC(N)=O)C(O)C(Oc2ccc3c(O)c(NC(=O)c4ccc(O)c(CC=C(C)C)c4)c(=O)oc3c2C)OC1(C)C yielded an IC50 [1] of over 10 µM, an IC50 [2] of over 10 µM and an IC50 [3] of over 10 µM. It also gave an IC50 [4] of over 10 µM, an IC50 [5] of over 10 µM and an IC50 [6] of over 10 µM. For the same compound, the viability, T/C [7] was 97.4%, the viability, T/C [8] was 79.1% and the viability, T/C [9] was 69.6%. The viability, T/C [10] was 65.3%, the viability, T/C [11] was 60.8% and the viability, T/C [12] was 58.2%. For the same compound, the viability, T/C [13] was 94.9%, the viability, T/C [14] was 84.9% and the viability, T/C [15] was 74.9%. The viability, T/C [16] was 60.1%, the viability, T/C [17] was 71.6% and the viability, T/C [18] was 54.2%. For the same compound, the viability, T/C [19] was 100%, the viability, T/C [20] was 88.5% and the viability, T/C [21] was 87.8%. It also gave a viability, T/C [22] of 68%, a viability, T/C [23] of 67.3% and a viability, T/C [24] of 60.3%. For the same compound, the viability, T/C [25] was 91.3%, the viability, T/C [26] was 78.1% and the viability, T/C [27] was 80.1%. It also gave a viability, T/C [28] of 87%, a viability, T/C [29] of 65.2% and a viability, T/C [30] of 56.9%. For the same compound, the viability, T/C [31] was 94.6%, the viability, T/C [32] was 77.8% and the viability, T/C [33] was 79.5%. It also gave a viability, T/C [34] of 67.7%, a viability, T/C [35] of 60.4% and a viability, T/C [36] of 54.3%. The viability, T/C [37] was 96.9%, the viability, T/C [38] was 91.9% and the viability, T/C [39] was 79.1%. The viability, T/C [40] was 64%, the viability, T/C [41] was 70.2% and the viability, T/C [42] was 55.7%.
With COc1ccc([C@@H](O)c2cc(-c3ncnc4cc(N5CCOCC5)ccc34)c(F)cc2Cl)nn1 the viability, T/C (compound 0.0316 µM) was 96.7% and 96.6% and 100%, the viability, T/C (compound 0.1 µM) was 89.4% and 101% and 98% and the viability, T/C (compound 0.316 µM) was 84.6% and 83% and 84%. The viability, T/C (compound 1 µM) was 60.7% and 73.9% and 67.8%, the viability, T/C (compound 3.16 µM) was 44.7% and 71.7% and 51.1% and the viability, T/C (compound 10 µM) was 39.7% and 44.2% and 39.9%. The IC50 (curve of compound) was 2.17 µM and 8.03 µM and 3.39 µM.
